We go through eight compounds from article PMC12169615, “Fluorescent 4‑Nitrobenzo-2-oxa-1,3-diazole-Coupled Bile Acids as Probe Substrates of Hepatic and Intestinal Bile Acid Transporters of the Solute Carrier Families SLC10 and SLCO” (Journal of Medicinal Chemistry, 2025).

Values joined by “and” are separate entries in the source; they are usually repeats but may differ in a detail not shown here. Equal values may be shown once.

Holding throughout (assay): Quantitative uptake of 3-NBD-BA in carrier-expressing HEK293 cells (fluorescence reader)
Common to all, as to format: cell-based

Experiment [1] concerns the target T1, human ASBT (Homo sapiens, UniProt Q12908).
T1 sequence (Q12908 1-348): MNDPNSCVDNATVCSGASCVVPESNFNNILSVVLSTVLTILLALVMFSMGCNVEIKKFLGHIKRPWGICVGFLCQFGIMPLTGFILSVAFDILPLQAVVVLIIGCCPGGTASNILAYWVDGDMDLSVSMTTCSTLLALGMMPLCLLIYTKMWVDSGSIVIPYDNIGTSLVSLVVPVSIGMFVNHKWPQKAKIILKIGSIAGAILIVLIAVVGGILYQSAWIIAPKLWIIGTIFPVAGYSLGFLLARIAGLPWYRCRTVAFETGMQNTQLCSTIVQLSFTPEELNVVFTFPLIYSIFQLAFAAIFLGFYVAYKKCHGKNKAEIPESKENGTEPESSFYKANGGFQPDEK
Further details: stably transfected with the full open reading frames of human NTCP, ASBT, SOAT, OATP1B1, and OATP1B3; expressed in transfected cells. Particulars: ASBT-HEK293, 25 μM, 37 °C, +Na+ vs -Na+. Here is the method:
(§1) For quantification of the transport activity of the synthesized NBD-BA, all cell lines were seeded on 96 well plates and transport experiments were performed under the same control conditions (-Na^+ control for the SLC10 carriers and nontransfected HEK293 cells for the OATP carriers) as before (Figure ). For each NBD-BA, a substrate concentration of 25 μM was used, and the uptake phase was terminated after 10 min of incubation at 37 °C. […] The transport ratios ranged from 3-fold to 39-fold. In direct comparison, 3α-NBD-TCA (14d) and 3α-NBD-GCA (16d) were transported better than their 3β-analogs 3β-NBD-TCA (14a) and 3β-NBD-GCA (16a), respectively, clearly pointing to a preference for the α-position over the β-position of the 3-NBD-label. In direct comparison between the taurine- or glycine-conjugation of the respective NBD-BA, there was a clear preference for 3α-NBD-GCA (16d) over 3α-NBD-TCA (14d), at least for NTCP and mAsbt, pointing to a favorable substrate recognition for glycine-conjugated NBD-BA.
(§2) 5 Quantitative uptake experiments with the 3-NBD-BA in HEK293 cells stably expressing the human carriers NTCP, ASBT, SOAT, OATP1B1, and OATP1B3, or the mouse carriers mNtcp and mAsbt. For the SLC10 carriers, all transport experiments were performed in the presence (filled bars) and the absence (hatched bars) of sodium. For the OATP carriers, uptake into carrier-expressing cells (filled bars) was compared to uptake into non-carrier-expressing HEK293 cells (hatched bars). All cell lines were incubated at 37 °C for 10 min with the indicated 3-NBD-BA at 25 μM. Then, cells were washed with PBS and subjected to fluorescence detection. The following fluorescent BA were analyzed: 3α-NBD-TCA (14d), 3β-NBD-TCA (14a), 3α-NBD-GCA (16d), 3β-NBD-GCA (16a), 3β-NBD-TCDCA (14b), 3β-NBD-CDCA (6b), 3β-NBD-DCA (6c), 3α-NBD-CA (6d), and 3β-NBD-CA (6a). Data represent means ± SD of triplicate determinations of representative experiments. […] RFU, relative fluorescence units. TEXT PRINTED IN THE PICTURE: 3α-NBD-TCA (14d): NTCP: 9 X; mNtcp: 30 X; ASBT: 2 X; mAsbt: 14 X | 3ß-NBD-TCA (14a): NTCP: 12 X; mNtcp: 20 X; mAsbt: 18 X | 3α-NBD-GCA (16d): NTCP: 27 X; mNtcp: 26 X; ASBT: 3 X; mAsbt: 39 X | 3ß-NBD-GCA (16a): NTCP: 15 X; mNtcp: 14 X; mAsbt: 5 X | 3ß-NBD-TCDCA (14b): NTCP: 5 X; mNtcp: 3 X; mAsbt: 4 X | 3ß-NBD-CDCA (6b): mNtcp: < 2 X; ASBT: < 2 X; mAsbt: < 2 X; OATP1B1: < 2 X; OATP1B3: < 2 X | 3ß-NBD-DCA (6c): mNtcp: < 2 X; ASBT: < 2 X; mAsbt: < 2 X | 3α-NBD-CA (6d): mNtcp: 2 X; mAsbt: 4 X | 3ß-NBD-CA (6a): NTCP: 2 X; mNtcp: 2 X; mAsbt: 2 X DOUBTS OF THE COPYIST ABOUT THIS PICTURE: The picture prints no panel letters, so the chart titles (NTCP, mNtcp, ASBT, mAsbt, OATP1B1, OATP1B3) are written in front of the values as the target. / Substance labels: the sign after '3' is printed like 'ß' and may be meant as 'β'. / The 'ns' marks and significance asterisks were left out as statistics. The SOAT chart prints only 'ns'.

For experiment [2], the target named is T2, mouse mNtcp (Mus musculus, UniProt O08705).
T2 construct: stably transfected with the full open reading frames of human NTCP, ASBT, SOAT, OATP1B1, and OATP1B3 as well as mouse mNtcp and mAsbt; expressed in transfected cells
T2 sequence (O08705 1-362): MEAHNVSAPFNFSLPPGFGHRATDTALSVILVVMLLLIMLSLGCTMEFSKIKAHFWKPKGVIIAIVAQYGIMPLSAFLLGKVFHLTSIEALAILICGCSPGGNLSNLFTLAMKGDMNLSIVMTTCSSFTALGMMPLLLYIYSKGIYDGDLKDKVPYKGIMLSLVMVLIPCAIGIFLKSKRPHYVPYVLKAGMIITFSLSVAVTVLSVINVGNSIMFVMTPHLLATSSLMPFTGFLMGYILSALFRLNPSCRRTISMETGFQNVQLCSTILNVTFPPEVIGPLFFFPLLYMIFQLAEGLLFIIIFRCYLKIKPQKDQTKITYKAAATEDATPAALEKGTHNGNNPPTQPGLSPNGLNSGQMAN
Particulars: mNtcp-HEK293, 25 μM, 37 °C, +Na+ vs -Na+. Here is the method:
as §1, §2

In experiment [3] the target is T3, human NTCP (Homo sapiens, UniProt Q14973).
T3 construct: HEK293 cell lines stably transfected with the full open reading frames of human NTCP; expressed in transfected cells
T3 sequence (Q14973 1-349): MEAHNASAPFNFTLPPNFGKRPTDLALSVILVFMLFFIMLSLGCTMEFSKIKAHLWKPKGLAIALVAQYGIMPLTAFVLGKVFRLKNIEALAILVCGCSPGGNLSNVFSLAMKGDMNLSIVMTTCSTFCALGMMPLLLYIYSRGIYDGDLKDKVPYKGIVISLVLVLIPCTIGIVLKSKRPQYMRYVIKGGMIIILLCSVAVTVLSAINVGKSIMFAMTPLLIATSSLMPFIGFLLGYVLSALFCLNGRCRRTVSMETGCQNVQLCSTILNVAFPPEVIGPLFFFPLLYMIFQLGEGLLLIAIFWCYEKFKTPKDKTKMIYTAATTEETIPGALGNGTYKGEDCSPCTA
The conditions noted are these: NTCP-HEK293, 25 μM, 37 °C, +Na+ vs -Na+. The method, then: as §1, §2

For the compound “7α-Hydroxy-3β-[(7-nitro-2,1,3-benzoxadiazol-4-yl)amino]-5β-cholan-24-oate [6b]”, the “Specific transport ratio ASBT (25µM/10 min uptake)” value (from here on “Specific transport ratio ASBT”) in experiment [1] was less than 2x x-fold. Also, in experiment [2], the “Specific transport ratio mNtcp (25µM/10 min uptake)” value (from here on “Specific transport ratio mNtcp”) is less than 2x x-fold. Moreover, in experiment [3], the “Specific transport ratio NTCP (25µM/10 min uptake)” value (“Specific transport ratio NTCP” for short) was “ns”.
Consider `C[C@H](CCC(=O)O)[C@H]1CC[C@H]2[C@@H]3[C@H](O)C[C@@H]4C[C@@H](Nc5ccc([N+](=O)[O-])c6nonc56)CC[C@]4(C)[C@H]3C[C@H](O)[C@]12C` [6a, 7α,12α-Dihydroxy-3β-[(7-nitro-2,1,3-benzoxadiazol-4-yl)amino]-5β-cholan-24-oate], for which, in experiment [1], the “Specific transport ratio ASBT” value was “ns”. Besides, the “Specific transport ratio mNtcp” value in experiment [2] is 2 x-fold and 2x x-fold. The “Specific transport ratio NTCP” value in experiment [3] is 2 x-fold and 2x x-fold.
In the case of `C[C@H](CCC(=O)O)[C@H]1CC[C@H]2[C@@H]3[C@H](O)C[C@@H]4C[C@H](Nc5ccc([N+](=O)[O-])c6nonc56)CC[C@]4(C)[C@H]3C[C@H](O)[C@]12C` [6d, 7α,12α-Dihydroxy-3α-[(7-nitro-2,1,3-benzoxadiazol-4-yl)amino]-5β-cholan-24-oate], the “Specific transport ratio ASBT” value in experiment [1] is on record as “ns”. For the same compound, the “Specific transport ratio mNtcp” value in experiment [2] was 2 x-fold and 2x x-fold. In addition, the “Specific transport ratio NTCP” value in experiment [3] was “ns”.
`C[C@H](CCC(=O)NCCS(=O)(=O)[O-])[C@H]1CC[C@H]2[C@@H]3[C@H](O)C[C@@H]4C[C@@H](Nc5ccc([N+](=O)[O-])c6nonc56)CC[C@]4(C)[C@H]3C[C@H](O)[C@]12C.[Na+]` [14a]: the “Specific transport ratio ASBT” value in experiment [1] was “not transported and ns”. For the same compound, the “Specific transport ratio mNtcp” value in experiment [2] is reported as 20x x-fold. Further, in experiment [3], the “Specific transport ratio NTCP” value stood at 12x x-fold.
For the compound `C[C@H](CCC(=O)NCCS(=O)(=O)[O-])[C@H]1CC[C@H]2[C@@H]3[C@H](O)C[C@@H]4C[C@H](Nc5ccc([N+](=O)[O-])c6nonc56)CC[C@]4(C)[C@H]3C[C@H](O)[C@]12C.[Na+]` [14d], the “Specific transport ratio mNtcp” value in experiment [2] came out at 30x x-fold. Also, the “Specific transport ratio NTCP” value in experiment [3] came out at 9x x-fold.
The matching figures for `C[C@H](CCC(=O)NCC(=O)O)[C@H]1CC[C@H]2[C@@H]3[C@H](O)C[C@@H]4C[C@H](Nc5ccc([N+](=O)[O-])c6nonc56)CC[C@]4(C)[C@H]3C[C@H](O)[C@]12C` [16d]: 26x x-fold and 27x x-fold.
On to “12α-Hydroxy-3β-[(7-nitro-2,1,3-benzoxadiazol-4-yl)amino]-5β-cholan-24-oate [6c]”, for which the “Specific transport ratio ASBT” value in experiment [1] is reported as less than 2x x-fold. In experiment [2], the “Specific transport ratio mNtcp” value is listed as less than 2x x-fold. Also, the “Specific transport ratio NTCP” value in experiment [3] was “ns”.
In the case of `C[C@H](CCC(=O)NCC(=O)O)[C@H]1CC[C@H]2[C@@H]3[C@H](O)C[C@@H]4C[C@@H](Nc5ccc([N+](=O)[O-])c6nonc56)CC[C@]4(C)[C@H]3C[C@H](O)[C@]12C` [16a], in experiment [1], the “Specific transport ratio ASBT” value is “not transported and ns”. Moreover, the “Specific transport ratio mNtcp” value in experiment [2] is on record as 14x x-fold. For the same compound, in experiment [3], the “Specific transport ratio NTCP” value came out at 15x x-fold.
